Data reported in patent US20210130339A1, “COMPOUNDS” (GLAXOSMITHKLINE INTELLECTUAL PROPERTY DEVELOPMENT LIMITED, priority 2017, published 2021).

Tests used:
[1] = molecular target: T1, recombinant full length LRRK2 (Homo sapiens, UniProt Q5S007); experiment: Recombinant cellular LRRK2 AlphaScreen assay; format: cell-based; conditions: LRRK2 Ser935 phosphorylation, SH-SY5Y cells over-expressing recombinant full length LRRK2; read-out: pIC50 in the recombinant cellular LRRK2 AlphaScreen assay (converted)
T1 construct: A BacMam virus expressing full length recombinant LRRK2 was purchased from Invitrogen; host or cells: SH-SY5Y human neuroblastoma cells transduced with BacMam LRRK2 virus (MOI 50)
T1 sequence (Q5S007 whole entry): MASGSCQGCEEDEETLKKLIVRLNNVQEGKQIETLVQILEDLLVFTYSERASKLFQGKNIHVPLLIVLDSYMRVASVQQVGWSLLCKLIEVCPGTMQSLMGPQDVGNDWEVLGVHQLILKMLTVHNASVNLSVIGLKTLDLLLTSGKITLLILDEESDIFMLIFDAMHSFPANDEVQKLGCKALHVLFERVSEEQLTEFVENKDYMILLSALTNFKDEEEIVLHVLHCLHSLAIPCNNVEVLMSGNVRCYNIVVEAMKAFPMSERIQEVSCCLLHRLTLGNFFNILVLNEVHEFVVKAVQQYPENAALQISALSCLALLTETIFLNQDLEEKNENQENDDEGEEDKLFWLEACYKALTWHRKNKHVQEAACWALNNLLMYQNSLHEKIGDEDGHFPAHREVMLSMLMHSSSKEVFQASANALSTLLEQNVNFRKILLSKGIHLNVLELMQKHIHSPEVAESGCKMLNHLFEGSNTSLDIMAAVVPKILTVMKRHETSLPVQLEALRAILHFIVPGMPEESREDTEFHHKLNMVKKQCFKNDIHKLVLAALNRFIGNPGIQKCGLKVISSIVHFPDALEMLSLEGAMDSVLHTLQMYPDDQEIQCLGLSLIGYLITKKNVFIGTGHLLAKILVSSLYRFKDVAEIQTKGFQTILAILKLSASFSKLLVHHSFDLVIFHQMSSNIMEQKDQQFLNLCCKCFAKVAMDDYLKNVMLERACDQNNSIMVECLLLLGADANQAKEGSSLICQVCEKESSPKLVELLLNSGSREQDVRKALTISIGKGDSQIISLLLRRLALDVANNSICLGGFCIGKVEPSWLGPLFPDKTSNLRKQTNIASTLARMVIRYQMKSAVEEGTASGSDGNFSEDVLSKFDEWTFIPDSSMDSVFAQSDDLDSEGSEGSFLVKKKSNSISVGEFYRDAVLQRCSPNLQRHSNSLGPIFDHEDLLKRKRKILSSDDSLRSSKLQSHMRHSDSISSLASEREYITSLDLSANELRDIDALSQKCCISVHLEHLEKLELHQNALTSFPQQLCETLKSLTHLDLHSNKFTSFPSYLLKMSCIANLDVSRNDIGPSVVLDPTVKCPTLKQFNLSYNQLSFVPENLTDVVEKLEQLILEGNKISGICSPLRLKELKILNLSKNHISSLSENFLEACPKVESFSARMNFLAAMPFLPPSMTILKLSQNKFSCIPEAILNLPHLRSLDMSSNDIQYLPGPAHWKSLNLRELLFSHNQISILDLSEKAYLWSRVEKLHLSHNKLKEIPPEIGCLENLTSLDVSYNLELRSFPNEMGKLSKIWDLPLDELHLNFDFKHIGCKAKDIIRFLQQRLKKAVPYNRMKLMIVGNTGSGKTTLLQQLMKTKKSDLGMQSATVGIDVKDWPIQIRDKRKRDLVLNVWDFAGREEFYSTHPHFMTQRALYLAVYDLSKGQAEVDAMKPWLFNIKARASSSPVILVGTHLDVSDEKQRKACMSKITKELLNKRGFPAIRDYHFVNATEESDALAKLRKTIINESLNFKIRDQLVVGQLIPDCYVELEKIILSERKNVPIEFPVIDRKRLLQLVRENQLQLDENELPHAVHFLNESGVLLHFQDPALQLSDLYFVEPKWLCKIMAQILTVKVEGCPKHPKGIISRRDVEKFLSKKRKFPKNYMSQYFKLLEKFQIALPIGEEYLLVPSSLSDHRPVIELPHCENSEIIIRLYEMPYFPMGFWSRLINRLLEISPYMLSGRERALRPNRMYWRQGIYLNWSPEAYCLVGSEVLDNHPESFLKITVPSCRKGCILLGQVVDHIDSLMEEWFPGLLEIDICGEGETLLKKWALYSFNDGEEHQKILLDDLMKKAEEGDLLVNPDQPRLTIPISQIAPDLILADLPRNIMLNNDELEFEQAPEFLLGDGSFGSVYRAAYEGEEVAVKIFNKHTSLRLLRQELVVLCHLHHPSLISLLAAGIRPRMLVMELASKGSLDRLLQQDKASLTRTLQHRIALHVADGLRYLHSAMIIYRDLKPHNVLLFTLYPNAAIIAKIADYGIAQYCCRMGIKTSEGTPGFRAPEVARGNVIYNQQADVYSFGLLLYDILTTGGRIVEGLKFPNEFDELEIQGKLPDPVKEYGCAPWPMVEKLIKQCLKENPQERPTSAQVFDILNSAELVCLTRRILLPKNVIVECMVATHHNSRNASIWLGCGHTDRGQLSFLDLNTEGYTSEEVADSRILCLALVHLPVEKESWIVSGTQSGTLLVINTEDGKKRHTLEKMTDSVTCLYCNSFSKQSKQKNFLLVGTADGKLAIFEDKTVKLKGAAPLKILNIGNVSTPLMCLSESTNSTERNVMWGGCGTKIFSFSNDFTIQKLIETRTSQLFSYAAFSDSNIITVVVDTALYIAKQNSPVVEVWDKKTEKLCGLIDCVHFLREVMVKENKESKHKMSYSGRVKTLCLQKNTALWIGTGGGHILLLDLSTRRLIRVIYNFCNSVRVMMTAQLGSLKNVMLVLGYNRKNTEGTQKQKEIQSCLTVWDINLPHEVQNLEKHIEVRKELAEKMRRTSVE
Text: b. Recombinant Cellular LRRK2 AlphaScreen Assay
To determine the activity of compounds against LRRK2 kinase activity in cells, the observed LRRK2 kinase-dependent modulation of LRRK2 Ser 935 phosphorylation (Dzamko et al., 2010, Biochem. J. 430: 405-413) was utilized to develop a quantitative 384 well plate-based immunoassay of LRRK2 Ser935 phosphorylation in the human neuroblastoma cell line SH-SY5Y, engineered to over-express recombinant full length LRRK2 protein. A BacMam virus expressing full length recombinant LRRK2 was purchased from Invitrogen and amplified by inoculation of SF-9 cells at MOI 0.3 for 4-5 days in Sf-900 III SFM medium supplemented with 3% fetal bovine serum. Infected cell cultures were then centrifuged at 2000 g for 20 minutes, viral supernatant titer determined by anti-gp64 plaque assay and stored at 4° C. Affinity-purified anti-phospho LRRK2 Ser935 sheep polyclonal antibody (Dzamko et al., 2010, Biochem. J. 430: 405-413) was biotinylated by standard methods (PerkinElmer). Anti-LRRK2 rabbit polyclonal antibody was purchased from Novus Biologicals. AlphaScreen Protein A IgG Kit (including acceptor and donor beads) was purchased from Perkin Elmer. SH-SY5Y cells were grown in DMEM/F12 medium with 10% dialysed fetal bovine serum and harvested by treatment with 0.5% trypsin-EDTA for 5 minutes at 37° C. followed by centrifugation at 1000 rpm for 4 minutes. The cell pellet was resuspended in Opti-MEM reduced serum media (Invitrogen) at 200,000 cells/ml and mixed with the BacMam LRRK2 virus at MOI=50. 50 μl cell solutions were then dispensed to each well of a 384-well plate and incubated at 37° C., 5% CO2 for 24 hours. Serial dilutions of test compounds were prepared in Opti-MEM reduced serum media (Invitrogen) and 5.6 ul transferred from compound plate to cell assay plate to achieve a top final assay concentration of 10 uM. DMSO was used in certain wells as controls. Cells were incubated at 37° C., 5% CO2 for 60 minutes. The medium was then removed and cells lysed by addition of 20 ul cell lysis buffer (Cell Signaling Technology) and incubation at 4° C. for 20 minutes. 10 ul of antibody/acceptor bead mix [(1/1000 biotinylated-pS935 LRRK2 antibody, 1/1000 total-LRRK2 antibody, 1/100 Acceptor beads in AlphaScreen detection buffer (25 mM Hepes (pH 7.4), 0.5% Triton X-100, 1 mg/ml Dextran 500 and 0.1% BSA)] was then added to each well and plates incubated for 2 hours at ambient temperature in the dark. 10 μl of donor beads solution (1/33.3 donor beads in AlphaScreen detection buffer) was then added to each well. Following incubation for a further 2 hours at ambient temperature in the dark, plates were read on an EnVision™ plate reader at emission 520-620 nm with excitation 680 nm. Dose response curve data was based on sigmoidal dose-response model.

[2] = molecular target: T2, Full length G2019 human LRRK2 (Homo sapiens, UniProt Q5S007); experiment: Full length G2019 human LRRK2 Inhibition Mass Spectrometry assay; format: biochemical; conditions: LRRKtide substrate, RapidFire mass spectrometry; read-out: pIC50 in the Full length G2019 human LRRK2 Inhibition Mass Spectrometry assay (converted)
T2 construct: purified recombinant Full length Flag-LRRK2 in assay buffer; made in house; host or cells: HEK293 6E cells transduced with BacMam virus (virus generated in Sf9 cells)
T2 sequence (Q5S007 with tags, fused parts or gaps R50H): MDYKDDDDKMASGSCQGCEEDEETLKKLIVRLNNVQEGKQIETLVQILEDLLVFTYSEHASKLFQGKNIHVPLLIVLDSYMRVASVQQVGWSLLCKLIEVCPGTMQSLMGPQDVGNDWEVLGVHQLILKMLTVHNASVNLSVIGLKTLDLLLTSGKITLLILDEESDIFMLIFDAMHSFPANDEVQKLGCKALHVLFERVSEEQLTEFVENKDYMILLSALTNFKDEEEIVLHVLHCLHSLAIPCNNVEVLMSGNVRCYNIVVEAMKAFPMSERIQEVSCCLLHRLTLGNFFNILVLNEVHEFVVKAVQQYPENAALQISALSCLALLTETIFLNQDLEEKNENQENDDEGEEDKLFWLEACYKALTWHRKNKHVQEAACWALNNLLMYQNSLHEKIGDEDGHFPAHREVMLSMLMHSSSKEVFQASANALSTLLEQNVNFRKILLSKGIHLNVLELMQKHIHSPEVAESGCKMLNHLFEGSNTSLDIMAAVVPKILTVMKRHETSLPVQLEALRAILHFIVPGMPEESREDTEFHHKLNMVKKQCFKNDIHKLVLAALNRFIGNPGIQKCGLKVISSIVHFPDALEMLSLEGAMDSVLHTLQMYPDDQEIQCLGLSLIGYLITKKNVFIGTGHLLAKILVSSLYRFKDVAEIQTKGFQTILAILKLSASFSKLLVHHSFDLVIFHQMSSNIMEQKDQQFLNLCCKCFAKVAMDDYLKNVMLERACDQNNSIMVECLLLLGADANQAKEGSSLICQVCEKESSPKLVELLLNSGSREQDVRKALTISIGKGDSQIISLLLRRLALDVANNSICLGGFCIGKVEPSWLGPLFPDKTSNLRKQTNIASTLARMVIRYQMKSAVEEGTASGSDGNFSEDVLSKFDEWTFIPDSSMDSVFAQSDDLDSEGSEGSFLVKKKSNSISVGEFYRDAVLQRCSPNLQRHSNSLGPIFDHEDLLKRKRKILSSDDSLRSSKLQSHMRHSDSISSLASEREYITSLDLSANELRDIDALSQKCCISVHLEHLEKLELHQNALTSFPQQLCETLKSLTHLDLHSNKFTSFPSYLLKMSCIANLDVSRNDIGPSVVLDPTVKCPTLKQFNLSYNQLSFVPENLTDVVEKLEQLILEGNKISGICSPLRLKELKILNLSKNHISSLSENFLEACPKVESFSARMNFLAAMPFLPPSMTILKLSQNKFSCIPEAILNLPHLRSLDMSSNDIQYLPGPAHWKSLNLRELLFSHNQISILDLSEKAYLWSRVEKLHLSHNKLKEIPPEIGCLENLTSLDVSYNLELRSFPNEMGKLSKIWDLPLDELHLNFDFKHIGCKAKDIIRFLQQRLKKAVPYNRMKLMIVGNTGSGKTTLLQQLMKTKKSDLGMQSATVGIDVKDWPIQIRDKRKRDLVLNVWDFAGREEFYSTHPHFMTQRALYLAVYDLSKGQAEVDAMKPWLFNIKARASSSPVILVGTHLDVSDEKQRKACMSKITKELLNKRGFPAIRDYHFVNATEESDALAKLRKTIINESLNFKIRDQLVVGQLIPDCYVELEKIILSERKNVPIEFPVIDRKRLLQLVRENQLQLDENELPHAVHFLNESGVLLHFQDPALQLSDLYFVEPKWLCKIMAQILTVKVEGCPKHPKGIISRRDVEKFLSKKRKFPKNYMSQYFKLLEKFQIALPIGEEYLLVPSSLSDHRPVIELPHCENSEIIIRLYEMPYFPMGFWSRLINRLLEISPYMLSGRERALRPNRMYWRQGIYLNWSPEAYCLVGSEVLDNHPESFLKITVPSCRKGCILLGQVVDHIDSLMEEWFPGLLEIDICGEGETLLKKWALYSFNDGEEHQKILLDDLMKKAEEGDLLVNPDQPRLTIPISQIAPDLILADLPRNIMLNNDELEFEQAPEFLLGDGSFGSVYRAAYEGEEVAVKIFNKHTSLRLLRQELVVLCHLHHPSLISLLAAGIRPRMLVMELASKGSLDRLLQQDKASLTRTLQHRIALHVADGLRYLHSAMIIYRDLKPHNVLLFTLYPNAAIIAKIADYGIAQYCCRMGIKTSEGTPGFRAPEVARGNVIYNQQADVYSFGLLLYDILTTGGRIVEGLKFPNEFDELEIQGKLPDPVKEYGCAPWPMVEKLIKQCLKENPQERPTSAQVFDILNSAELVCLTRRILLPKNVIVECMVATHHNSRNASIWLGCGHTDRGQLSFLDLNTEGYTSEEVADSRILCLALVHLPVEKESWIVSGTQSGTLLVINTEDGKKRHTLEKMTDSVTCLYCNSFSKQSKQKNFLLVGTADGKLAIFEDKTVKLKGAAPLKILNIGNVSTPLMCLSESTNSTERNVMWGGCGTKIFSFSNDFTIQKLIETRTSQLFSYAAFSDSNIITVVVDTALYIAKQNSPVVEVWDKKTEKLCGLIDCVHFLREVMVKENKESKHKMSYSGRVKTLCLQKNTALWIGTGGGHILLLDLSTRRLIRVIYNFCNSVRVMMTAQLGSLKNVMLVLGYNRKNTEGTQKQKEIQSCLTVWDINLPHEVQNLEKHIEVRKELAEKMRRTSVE
Procedure: a. Full Length G2019 Human LRRK2 Inhibition Mass Spectrometry Assay
This assay for Leucine Rich Repeat Kinase 2 (LRRK2) inhibition is based on the direct measurement of the peptide ‘LRRKtide’ (LRRKtide: RLGRDKYKT*LRQIRQ and “*” refers to the site of phosphorylation.) and phosphorylated ‘LRRKtide’ using a high throughput RapidFire mass spectrometry assay. Inhibitors are compounds that reduce the conversion of LRRKtide to phospho-LRRKtide.
HEK293 6E cells were incubated in a 37° C. incubator with a humidified atmosphere of 5% CO2 on an orbital shaker rotating at 110 rpm. On the day of transduction, the cell viability was higher than 98% and the cell density was in the range of 1×10^6˜1.5×10^6 cells/ml. HEK293 6E cells were centrifuged at 1,000 rpm for 10 min, and then the cells were resuspended in fresh Freestyle 293 expression medium (Invitrogen:12338) with 0.1% F-68 (Invitrogen:24040-032) but without antibiotics (G418) at density of 1×10^6 cells/ml. BacMam virus with Flag-hu LRRK2 (genotypically normal) gene was centrifuged at 40,000 g for 2 hours, then resuspended in fresh Freestyle 293 expression medium. The resuspended virus was added into the cells in at MOI of 10. The cells were incubated in a 37° C. incubator with a humidified atmosphere of 5% CO2 in air on an orbital shaker rotating at 110 rpm. Cultures were harvested at approximately 48 hours post-transduction by centrifugation at 4,000 rpm for 20 min and pellets were frozen for purification.
The suspended cells were lysed by sonication on ice for 30 min (2 secs on/4 sec off, 20% amplitude), and centrifuged at 10,000 rpm for 30 minutes at 4° C. The supernatant was incubated with 1 mL per litre of cell culture of anti-Flag magnetic beads (Sigma-Aldrich: M8823) at 4° C. for 3 hours, then the beads were washed by 5 mL (5 column volume) binding buffer (50 mM Tris pH7.5@ 4C, 500 mM NaCl, 0.5 mM EDTA, 0.1% TritonX-100, 10% glycerol, freshly add 2 mM DTT) for three times. The Flag tagged LRRK2 proteins were eluted by Elution buffer (50 mM Tris pH7.5@ 4C, 500 mM NaCl, 0.5 mM EDTA, 0.1% TritonX-100, 10% glycerol, freshly add 2 mM DTT, 250 ug/ml Flag peptide (Sigma-Aldrich:F3290)) at 4° C. for 2 hours. Flag peptide was removed by Zeba Spin Desalting Columns, 7K MWCO (Thermo-Fisher: 89893) and the buffer of eluted LRRK2 proteins was exchanged into Storage Buffer (50 mM Tris pH7.5@4C, 150 mM NaCl, 0.5 mM EDTA, 0.02% Triton X-100, 2 mM DTT and 50% Glycerol) using Amicon Ultra Centrifugal Filter Units (100 kD) (Merck: UFC910096). Fractions containing LRRK2 proteins were pooled, aliquoted and stored at −80° C. Protein concentration was determined by Bradford protein assay, and protein purity was analyzed by NuPAG Novex 4-12% Bis-Tris Protein Gels (Invitrogen: NP0322BOX).
• 1) A 10 mM test compound was dissolved in 100% DMSO and serially diluted 1 in 4. 100 nL of this dilution series was then added to a 384 well, v bottom polypropylene plate, excluding columns 6 and 18. 100 nL of DMSO was added to columns 6 and 18 as controls wells. Assay dilution gave a top final assay concentration of test compound of 100 μM • 2) 50 μl of 1% formic acid in laboratory grade water was added to column 18 using a multidrop combi dispenser to act as a pre stopped assay control. • 3) 5 μl of ‘enzyme solution’ containing 50 nM of purified recombinant Full length Flag-LRRK2 in assay buffer (50 mM Hepes (pH 7.2), 10 mM MgCl2, 150 mM NaCl, 5% glycerol, 0.0025% triton X-100 and 1 mM DTT) was added to all wells using a multidrop combi dispenser, giving a final assay concentration of 25 nM LRRK2 enzyme. […] Test plates were then incubated for 30 minutes at room temperature. • 4) 5 μl ‘substrate solution’ containing 50 uM LRRKtide peptide substrate and 4 mM ATP was added to all wells of the plate using a multidrop combi dispenser giving a final assay concentration of 25 uM LRRKtide and 2 mM ATP. Test plates were then incubated for 1 hour at room temperature. […]

Structure (SMILES) | IC50 [1] [nM] | IC50 [2] [nM]
COc1nc(N2CCOCC2)cc(-n2ncc3cc(C)c(C4CCN(C5CCOC5)CC4F)cc32)n1 (single isomer, unassigned) [Example E125, 4-(6-(6-(3-fluoro-1-(tetrahydrofuran-3-yl)-piperidin-4-yl)-5-methyl-1H-indazol-1-yl)-2-methoxypyrimidin-4-yl)morpholine] | ≤ 10 | ≤ 1000
Cc1nc(N2CCO[C@H](CO)C2)cc(-n2ncc3cc(C)c(C4CCN(C5COCC5F)CC4)cc32)n1 (single isomer, unassigned) [Example E149] | ≤ 1000 | ≤ 100
COc1nc(N2CCOCC2)cc(-n2ncc3cc(C)c(C4CCN(C5CCOC5)CC4F)cc32)n1 (single isomer, unassigned) [Example E126, 4-(6-(6-(3-fluoro-1-(tetrahydrofuran-3-yl)-piperidin-4-yl)-5-methyl-1H-indazol-1-yl)-2-methoxypyrimidin-4-yl)morpholine] | ≤ 100 | ≤ 100
Cc1nc(N2CCOC(C(C)O)C2)cc(-n2ncc3cc(C)c(C4CCN(C5CCOC5)CC4)cc32)n1 (single isomer, unassigned) [Example E137, 1-(4-(2-methyl-6-(5-methyl-6-(1-(tetrahydrofuran-3-yl)piperidin-4-yl)-1H-indazol-1-yl)pyrimidin-4-yl)morpholin-2-yl)ethanol] | ≤ 1000 | ≤ 100
Cc1nc(N2CCOC(C(C)O)C2)cc(-n2ncc3cc(C)c(C4CCN(C5CCOC5)CC4)cc32)n1 (single isomer, unassigned) [Example E142, 1-(4-(2-methyl-6-(5-methyl-6-(1-(tetrahydrofuran-3-yl)piperidin-4-yl)-1H-indazol-1-yl)pyrimidin-4-yl)morpholin-2-yl)ethanol] | ≤ 1000 | ≤ 1000
Cc1nc(N2CCOC[C@H]2CO)cc(-n2ncc3cc(C)c(C4CCN(C5CCOC5)CC4)cc32)n1 (single isomer, unassigned) [Example E111] | – | ≤ 1000
COc1nc(N2CCO[C@@H](CO)C2)cc(-n2ncc3cc(C)c(C4CCN(C5CCOC5)CC4F)cc32)n1 (single isomer, unassigned) [Example E119] | ≤ 100 | ≤ 100
Cc1nc(N2CCO[C@H](CO)C2)cc(-n2ncc3cc(C)c(C4CCN(C5COCC5F)CC4)cc32)n1 (single isomer, unassigned) [Example E150] | ≤ 100 | ≤ 1000
COc1nc(N2CC(O)C2)cc(-n2ncc3cc(Cl)c(C4CCN(C5CCOC5)CC4)cc32)n1 (single isomer, unassigned) [Example E30, 1-(6-(5-Chloro-6-(1-(tetrahydrofuran-3-yl)piperidin-4-yl)-1H-indazol-1-yl)-2-methoxy-pyrimidin-4-yl)azetidin-3-ol] | ≤ 100 | ≤ 1000
Cc1nc(N2CCO[C@H](CO)C2)cc(-n2ncc3cc(C)c(C4CCN(C5COCC5C)CC4)cc32)n1 (stereo partly drawn) [Example E155, ((2S)-4-(2-methyl-6-(5-methyl-6-(1-(4-methyltetrahydrofuran-3-yl)piperidin-4-yl)-1H-indazol-1-yl)pyrimidin-4-yl)morpholin-2-yl)methanol] | ≤ 1000 | ≤ 100
Cc1nc(N2CC(C)(O)C2)cc(-n2ncc3cc(Cl)c(C4CCN(C5CCOC5)CC4)cc32)n1 (single isomer, unassigned) [Example E127, 1-(6-(5-chloro-6-(1-(tetrahydrofuran-3-yl)piperidin-4-yl)-1H-indazol-1-yl)-2-methyl-pyrimidin-4-yl)-3-methylazetidin-3-ol] | – | ≤ 100
Cc1nc(OC2CC(O)C2)cc(-n2ncc3cc(C)c(C4CCN(C5CCOC5)CC4)cc32)n1 (single isomer, unassigned) [Example E146, 3-((2-methyl-6-(5-methyl-6-(1-(tetrahydrofuran-3-yl)piperidin-4-yl)-1H-indazol-1-yl)pyrimidin-4-yl)oxy)cyclobutanol] | – | ≤ 1000
[2H]C1(N2CCC(c3cc4c(cnn4-c4cc(N5CCO[C@H](CO)C5)nc(C)n4)cc3C)CC2)CCOC1 (single isomer, unassigned) [Example E33] | – | ≤ 1000
Cc1nc(N2CC(CC(C)O)C2)cc(-n2ncc3cc(Cl)c(C4CCN(C5CCOC5)CC4)cc32)n1 (single isomer, unassigned) [Example E44, 1-(1-(6-(5-Chloro-6-(1-(tetrahydrofuran-3-yl)piperidin-4-yl)-1H-indazol-1-yl)-2-methylpyr-imidin-4-yl)azetidin-3-yl)propan-2-ol] | ≤ 100 | –
COc1nc(N2CCO[C@H](CO)C2)cc(-n2ncc3cc(C)c(C4CCN(C5CCOC5)CC4F)cc32)n1 (single isomer, unassigned) [Example E121] | ≤ 10 | –
